# Experimental data as given in PMC6585649 (Clinical Pharmacology in Drug Development, 2018).
# Read-outs that look alike come from different tables or passages of the source.
# Tests used:
# CYP2D6 = conditions: in vitro; cited from earlier work
# [1] = cited from earlier work
# Multiple-dose = assay type: in vivo, human (healthy subjects); conditions: for AUC(0-t) / Cmax / half-life at 7 days: human, plasma, oral; for AUC(0-t): AUC0–24, steady state (day 7); for Cmax: steady state (day 7); for half-life at 7 days: t1/2, steady state; for Cmin: steady state (day 7, 24-hour period)
# [2] = assay type: in vivo, human (healthy subjects); conditions: for AUC(0-t) / AUC(0-inf) / Cmax / half-life: human, plasma, oral; for AUC(0-t): AUCt
# [3] = 6 and 12 mg twice daily, IR formulation, background methotrexate; cited from earlier work
# [4] = cited from earlier work; remark: listed apart in the source
# cytochrome P450 (CYP) 3A = conditions: in vitro; cited from earlier work
# [5] = assay type: in vivo; conditions: human, not told, po
# [6] = cited from earlier work; remark: listed apart in the source
# [7] = 6 mg, 6 mg twice-daily IR, fasting, n = 11, mean ± SD
# [8] = 12 mg, 12 mg twice-daily IR, fasting, n = 11, mean ± SD
# [9] = 15 mg, 15 mg once-daily ER, fasting, n = 12, mean ± SD
# [10] = 15 mg, 15 mg once-daily ER, nonfasting, n = 12, mean ± SD
# [11] = 30 mg, 30 mg once-daily ER, fasting, n = 11, mean ± SD
# [12] = 30 mg, 30 mg once-daily ER, nonfasting, n = 12, mean ± SD
# [13] = 12 mg, single 12 mg IR, fasting, n = 11, mean ± SD
# [14] = 15 mg, single 15 mg ER, fasting, n = 11, mean ± SD
# [15] = 24 mg, single 24 mg IR, fasting, n = 12, mean ± SD
# [16] = 30 mg, single 30 mg ER after high-fat breakfast, n = 12, mean ± SD
# [17] = 30 mg, single 30 mg ER, fasting, n = 12, mean ± SD
compound,measurement,setting,value
CC[C@@H]1CN(C(=O)NCC(F)(F)F)C[C@@H]1c1cnc2cnc3[nH]ccc3n12 [Upadacitinib],contribution of CYP2D6 to metabolism,CYP2D6,minor contribution
same,dose eliminated unchanged in urine,[1]; IR formulation,approximately 20%
same,time to maximum plasma concentration,[1]; IR formulation,≤ 2 h
same,accumulation in plasma,[1]; twice-daily dosing of the IR formulation,no significant accumulation
same,"difference of central values for Cmax and Cmin, ER once daily vs IR twice daily","Multiple-dose; 15 and 30 mg once daily vs 6 and 12 mg twice daily, fasting, steady state",≤ 13%
same,AUC(0-t),Multiple-dose; [7],288 ± 63.5 ng·h/mL
same,Cmax,Multiple-dose; [7],33.9 ± 8.8 ng/mL
same,half-life at 7 days,Multiple-dose; [7],1470 ± 1090 min
same,AUC(0-t),Multiple-dose; [8],534 ± 97.8 ng·h/mL
same,Cmax,Multiple-dose; [8],73.9 ± 14.2 ng/mL
same,half-life at 7 days,Multiple-dose; [8],690 ± 552 min
same,AUC(0-t),Multiple-dose; [9],279 ± 71.4 ng·h/mL
same,AUC(0-t),Multiple-dose; [10],317 ± 68.1 ng·h/mL
same,Cmax,Multiple-dose; [9],31.9 ± 11.2 ng/mL
same,Cmax,Multiple-dose; [10],36 ± 8.8 ng/mL
same,half-life at 7 days,Multiple-dose; [9],1010 ± 720 min
same,half-life at 7 days,Multiple-dose; [10],906 ± 606 min
same,AUC(0-t),Multiple-dose; [11],525 ± 123 ng·h/mL
same,AUC(0-t),Multiple-dose; [12],582 ± 172 ng·h/mL
same,Cmax,Multiple-dose; [11],68.2 ± 20.5 ng/mL
same,Cmax,Multiple-dose; [12],79.5 ± 31.8 ng/mL
same,half-life at 7 days,Multiple-dose; [11],1370 ± 1270 min
same,steady state achieved by day,"Multiple-dose; once-daily dosing of ER formulation, predose concentrations",≤ 4 days
same,Cmin,"Multiple-dose; 6 mg twice-daily IR, fasting, n = 11, mean ± SD",2.7 ± 0.6
same,Cmin,"Multiple-dose; 12 mg twice-daily IR, fasting, n = 11, mean ± SD",3.8 ± 2.2
same,Cmin,"Multiple-dose; 15 mg once-daily ER, fasting, n = 12, mean ± SD",3.1 ± 1.1
same,Cmin,"Multiple-dose; 15 mg once-daily ER, nonfasting, n = 12, mean ± SD",2.8 ± 1.2
same,Cmin,"Multiple-dose; 30 mg once-daily ER, fasting, n = 11, mean ± SD",3.8 ± 1.6
same,Cmin,"Multiple-dose; 30 mg once-daily ER, nonfasting, n = 12, mean ± SD",4.6 ± 1.8
same,increase in AUC and Cmax after a high-fat meal compared with fasting,[2]; ER formulation,~20%
same,AUC(0-t),[2]; [13],231 ± 34.5 ng·h/mL
same,AUC(0-inf),[2]; [13],234 ± 34.6 ng·h/mL
same,Cmax,[2]; [13],64.6 ± 10.3 ng/mL
same,half-life,"[2]; 12 mg, t1/2, single 12 mg IR, fasting, n = 11, mean ± SD",1100 ± 798 min
same,AUC(0-t),[2]; [14],227 ± 60 ng·h/mL
same,AUC(0-inf),[2]; [14],242 ± 63.6 ng·h/mL
same,half-life,"[2]; 15 mg, t1/2, single 15 mg ER, fasting, n = 11, mean ± SD",1310 ± 1390 min
same,AUC(0-inf),[2]; [15],524 ± 133 ng·h/mL
same,Cmax,[2]; [15],176 ± 65.6 ng/mL
same,half-life,"[2]; 24 mg, t1/2, single 24 mg IR, fasting, n = 12, mean ± SD",918 ± 816 min
same,AUC(0-t),[2]; [16],564 ± 145 ng·h/mL
same,AUC(0-t),[2]; [17],477 ± 130 ng·h/mL
same,AUC(0-inf),[2]; [17],491 ± 133 ng·h/mL
same,Cmax,[2]; [16],76.8 ± 29.6 ng/mL
same,Cmax,[2]; [17],63.7 ± 21.1 ng/mL
same,half-life,"[2]; 30 mg, t1/2, single 30 mg ER after high-fat breakfast, n = 12, mean ± SD",954 ± 660 min
same,half-life,"[2]; 30 mg, t1/2, single 30 mg ER, fasting, n = 12, mean ± SD",1090 ± 870 min
same,efficacy in subjects with RA,[3],maximal efficacy
same,effect of CYP2D6 metabolic phenotype on apparent oral clearance,[4],no effect
same,residual error in upadacitinib concentrations,[4],31%
same,intersubject variability of apparent central volume of distribution,[4]; healthy subjects,14%
same,intersubject variability of apparent oral clearance,[4]; healthy subjects,16%
same,higher AUC compared with subjects with normal renal function,"[4]; mild renal impairment, estimated",16%
same,higher AUC compared with subjects with normal renal function,"[4]; moderate renal impairment, estimated",32%
same,apparent oral clearance lower in RA patients compared with healthy subjects,"[4]; population pharmacokinetic analyses, estimated",24%
same,intersubject variability of apparent central volume of distribution,[4]; subjects with RA,27%
same,intersubject variability of apparent oral clearance,[4]; subjects with RA,26%
same,substrate of CYP3A,cytochrome P450 (CYP) 3A,nonsensitive substrate
same,bioavailability,[5],70 to 80%
same,decrease in upadacitinib AUC with rifampin,[6]; CYP inducer rifampin,60%
same,decrease of Cmax by food,[6]; IR formulation,approximately 20%
same,impact of food on AUC,[6]; IR formulation,no impact
same,increase in upadacitinib AUC with ketoconazole,[6]; strong CYP3A inhibitor ketoconazole,75%
